Literature values in patent US20070203145A1, “ZOPICLONE RESOLUTION” (priority 2006, published 2007).

Columns and labels:
[1] = compared with racemic zopiclone; per U.S. Pat. No. 6,444,673
[2] = compared with racemic zopiclone; per U.S. Pat. No. 6,444,673; remark: listed apart in the source

CN1CCN(C(=O)O[C@H]2c3nccnc3C(=O)N2c2ccc(Cl)cn2)CC1 [S-zopiclone, Eszopiclone]
activity relative to the racemic mixture [1]: twice the activity of the racemic mixture | toxicity relative to the racemic mixture [2]: less toxicity
